Measured values taken from patent US20210009541A1, “FUNGICIDAL OXADIAZOLES” (Bayer Aktiengesellschaft, priority 2018, published 2021).

How the values were obtained:
[1] = LogP by HPLC on reversed phase columns (EEC directive 79/831 Annex V.A8); format: physicochemical; conditions: reversed phase HPLC column; method [a]: LC-UV, acidic range, 0.1% formic acid in water and acetonitrile as eluent
Procedure: [table] If more than one Log P value is available within the same method, all the values are given and separated by “+”. […] Lambda-max-values were determined using UV-spectra from 200 nm to 400 nm and the peak values of the chromatographic signals.

Phakosporra pachirrhizi = assay: Example D: fungicidal activity against Phakosporra pachirrhizi (spore germination, 96-well imaging); format: cell-based; conditions: 30 ppm of active ingredient; wild-type spores, 4 hours at 21° C.; read-out: efficacy (inhibition of the fungal germination)
Procedure: Example D: Fungicidal Activity Against Phakosporra pachirrhizi
Cryo-conserved wild-type spores of the biotroph Phakosporra pachirrhizi are humidified in dedicated chamber overnight at 18° C. in the dark. The next day, a solution of spores at 7×10^3 sp/ml is prepared in a water based growth medium (DH2O+0.2 mM MOPS at pH 7+0.01% Tween 20) and spores are distributed in a 96-MTPS (final volume of 200 μL per well) thanks to a dispenser robot. Each molecule is tested at 10 doses (from 30 to 0.002 ppm final concentration) and accordingly 1.2 μL of each dilution is transferred in dedicated well to end-up with a final concentration of 0.6% DMSO. Wild-type spores and molecules are incubated for 4 hours at 21° C., and 6 images par well are then acquired with Transmitted Light images (Image Xpress Micro microscope, Molecular Devices, Objective 10λ, 6 images per well). Detection and quantification of the number of germinated spores per image is performed with a dedicated in-house developed algorithm (MetaXpress software, Molecular Devices).

[2] = tested on: Colletotrichum lindemuthianum; assay: Example E: Colletotrichum lindemuthianum in vitro cell test; format: cell-based; conditions: 144 h, 20 ppm of active ingredient, liquid culture, 6 days incubation, read-out: efficacy (inhibition of fungal growth)
Procedure: Example E: Colletotrichum lindemuthianum In Vitro Cell Test
• Solvent: DMSO Culture medium: 14.6 g anhydrous D-glucose (VWR), 7.1 g Mycological Peptone (Oxoid), 1.4 g granulated Yeast Extract (Merck), QSP 1 liter • Inoculum: spores suspension
Active ingredients were solubilized in DMSO and the solution used to prepare the required range of concentrations. The final concentration of DMSO used in the assay was 1%.
A spore suspension of C. lindemuthianum was prepared and diluted to the desired spore density.
The active ingredients were evaluated for their ability to inhibit spores germination and mycelium growth in liquid culture assay. The compounds were added in the desired concentration to the culture medium with spores. After 6 days incubation, fungi-toxicity of compounds was determined by spectrometric measurement of mycelium growth. Inhibition of fungal growth was determined by comparing the absorbance values in wells containing the active ingredient with the absorbance in control wells without active ingredient.

COCCn1cc2cc(-c3noc(C(F)(F)F)n3)ccc2n1 [Compound I-014, 2-(2-Methoxyethyl)-5-[5-(trifluoromethyl)-1,2,4-oxadiazol-3-yl]-2H-indazole]
chromatographic logP [1]: 2.96 | inhibition at 30 ppm (Phakosporra pachirrhizi): 70 to 79% | inhibition at 20 ppm [2]: 80 to 89%

FC(F)(F)c1nc(-c2ccc3[nH]ncc3c2)no1 [Compound I-005, 5-[5-(Trifluoromethyl)-1,2,4-oxadiazol-3-yl]-1H-indazole]
chromatographic logP [1]: 2.68 | inhibition at 30 ppm (Phakosporra pachirrhizi): 90 to 100% | inhibition at 20 ppm [2]: 90 to 100%
